Counter-ions that a name gives are not always drawn.
Experiments:
Type in all cases: cell-based
Parameters in all cases: key: Red, Green, Black or Purple mean strong colour; Red, Green, Black or Purple mean strong colour; Red, Green, Black or Purple mean strong colour; Red, Green, Black or Purple mean strong colour; +/− means less colour than strong; Tr means a trace of colour, less than +/−; — means no colour
E. faecium NCTC 7171 [1] = assay: screen of strains in broth medium containing FAC; details: 37° C. 18 hours
E. cloacae [2] = assay: screen of strains in broth medium containing FAC
E. faecalis NCTC 775 = assay: screen of strains in broth medium containing FAC; details: 37° C. 18 hours
E. cloacae [3] = assay: screen of strains on agar plates (CPS ID 3 or Columbia agar)
E. faecium NCTC 7171 [4] = assay: as above; details: 37° C. 18 hours
[5] = E. cloacae 260329R, 37° C. 18 hours
[6] = E. cloacae NCTC 11936, 37° C. 18 hours

Measured: colour

O=C(O)C1OC(Oc2cc3ccccc3cc2O)C(O)C(O)C1O [Compound 2b, DHN-β-D-Glucuronide CHA Salt]
—: E. faecium NCTC 7171 [1] | E. cloacae [2]; [5] | E. cloacae [2]; [6] | E. faecalis NCTC 775

O=C(O)[C@H]1O[C@@H](Oc2c[nH]c3ccc(Br)c(Cl)c23)[C@H](O)[C@@H](O)[C@@H]1O [X-β-D-glucuronide CHA salt, 5-bromo-4-chloro-3-indolyl β-D-glucuronide]
—: E. cloacae [3]; [5] | E. cloacae [3]; [6] | E. faecium NCTC 7171 [4]

O=C(O)[C@H]1O[C@@H](Oc2c[nH]c3cc(Cl)ccc23)[C@H](O)[C@@H](O)[C@@H]1O [Rose-β-D-glucuronide CHA salt, 6-chloro-3-indolyl β-D-glucuronide]
—: E. cloacae [3]; [5] | E. cloacae [3]; [6] | E. faecium NCTC 7171 [4]

O=C(O)C1OC(Oc2ccccc2O)C(O)C(O)C1O [Compound 1, Catechol β-D-Glucuronide CHA Salt]
—: E. faecium NCTC 7171 [1] | E. cloacae [2]; [5] | E. cloacae [2]; [6] | E. faecalis NCTC 775

Reference: US9879303B2, “Chromogenic glucuronidase substrates and uses” (Glycosynth Limited, priority 2013, dated 2018)
